Results taken from the Kinase Knowledgebase extract (Sharma et al. 2016).

Columns and labels:
EGFR = EGFR (UniProt P00533)
EGFR (Balb/c mice) [1] = molecular target: EGFR (Balb/c mice) (UniProt P00533); conditions: balb/mk cells
EGFR (Balb/c mice) [2] = molecular target: EGFR (Balb/c mice) (UniProt P00533); conditions: balb/c3t3

Sequence of EGFR (P00533 whole entry, looked up): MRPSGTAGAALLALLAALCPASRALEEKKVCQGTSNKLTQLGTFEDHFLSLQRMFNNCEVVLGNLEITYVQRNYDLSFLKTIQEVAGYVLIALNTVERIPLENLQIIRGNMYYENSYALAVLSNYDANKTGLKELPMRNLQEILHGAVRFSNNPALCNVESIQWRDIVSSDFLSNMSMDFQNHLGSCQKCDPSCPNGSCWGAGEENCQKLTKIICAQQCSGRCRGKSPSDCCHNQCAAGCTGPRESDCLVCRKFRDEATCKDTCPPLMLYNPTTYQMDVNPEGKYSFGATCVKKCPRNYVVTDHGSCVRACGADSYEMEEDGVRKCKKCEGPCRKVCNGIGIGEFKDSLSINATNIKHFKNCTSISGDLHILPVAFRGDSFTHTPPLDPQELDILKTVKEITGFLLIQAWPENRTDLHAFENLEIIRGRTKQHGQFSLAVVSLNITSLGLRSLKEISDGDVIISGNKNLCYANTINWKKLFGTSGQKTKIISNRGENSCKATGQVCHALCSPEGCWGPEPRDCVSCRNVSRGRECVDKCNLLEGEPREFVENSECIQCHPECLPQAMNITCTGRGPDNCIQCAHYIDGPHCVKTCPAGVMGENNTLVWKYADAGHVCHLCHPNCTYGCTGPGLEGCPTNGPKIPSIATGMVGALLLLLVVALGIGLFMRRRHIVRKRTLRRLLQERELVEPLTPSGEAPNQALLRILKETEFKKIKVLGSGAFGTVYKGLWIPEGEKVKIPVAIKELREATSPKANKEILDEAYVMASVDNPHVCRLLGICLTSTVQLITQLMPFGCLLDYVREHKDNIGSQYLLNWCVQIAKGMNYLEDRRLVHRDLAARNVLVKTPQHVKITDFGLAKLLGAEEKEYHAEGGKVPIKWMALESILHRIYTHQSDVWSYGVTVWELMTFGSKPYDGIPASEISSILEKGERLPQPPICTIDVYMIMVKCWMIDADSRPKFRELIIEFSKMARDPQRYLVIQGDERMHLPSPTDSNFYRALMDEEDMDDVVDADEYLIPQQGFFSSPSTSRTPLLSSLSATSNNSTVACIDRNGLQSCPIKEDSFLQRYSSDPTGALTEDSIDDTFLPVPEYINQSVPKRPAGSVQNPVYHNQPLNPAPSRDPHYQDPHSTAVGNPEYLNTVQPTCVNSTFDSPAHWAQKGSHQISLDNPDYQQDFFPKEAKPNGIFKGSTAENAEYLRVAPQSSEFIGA

SMILES	IC50 (EGFR)	IC50 (EGFR (Balb/c mice) [1])	IC50 (EGFR (Balb/c mice) [2])
Clc1cccc(Nc2ncnc3[nH]c(-c4nccs4)cc23)c1	0.5 to 1000 nM	100 to 1000 nM	1 to 100 nM
O=C(Nc1ccc(-c2cc3c(Nc4cccc(Cl)c4)ncnc3[nH]2)cc1)c1cccs1	0.5 to 1000 nM	100 to 1000 nM	1 to 100 nM
CN1CCN(C(=O)c2ccc(-c3cc4c(Nc5cccc(Cl)c5)ncnc4[nH]3)cc2)CC1	0.5 to 1000 nM	100 to 1000 nM	1 to 100 nM
COc1cc(-c2cc3c(Nc4cccc(Cl)c4)ncnc3[nH]2)ccc1O	0.5 to 1000 nM	100 to 1000 nM	1 to 100 nM
CN(C)C=Nc1ccc(-c2cc3c(Nc4cccc(Cl)c4)ncnc3[nH]2)cc1	0.5 to 1000 nM	100 to 1000 nM	1 to 100 nM
C[C@@H](Nc1ncnc2[nH]c(-c3cccc(NS(C)(=O)=O)c3)cc12)c1ccccc1	0.5 to 1000 nM	100 to 1000 nM	1 to 100 nM
CC(C)C(=Nc1ccc(-c2cc3c(Nc4cccc(Cl)c4)ncnc3[nH]2)cc1)N(C)C	0.5 to 1000 nM	100 to 1000 nM	1 to 100 nM
C[C@@H](Nc1ncnc2[nH]c(-c3cccc(N=CN(C)C)c3)cc12)c1ccccc1	0.5 to 1000 nM	100 to 1000 nM	1 to 100 nM
COc1ccc(-c2cc3c(N[C@H](C)c4ccccc4)ncnc3[nH]2)cc1	0.5 to 1000 nM	100 to 1000 nM	1 to 100 nM
CC(C)OC(=O)Nc1ccc(-c2cc3c(Nc4cccc(Cl)c4)ncnc3[nH]2)cc1	0.5 to 1000 nM	100 to 1000 nM	1 to 100 nM
CCNC(=O)Nc1ccc(-c2cc3c(Nc4cccc(Cl)c4)ncnc3[nH]2)cc1	0.5 to 1000 nM	100 to 1000 nM	1 to 100 nM
Oc1ccc(CNCc2cc3c(Nc4cccc(Cl)c4)ncnc3[nH]2)cc1	0.5 to 1000 nM	100 to 1000 nM	1 to 100 nM
O=S(=O)(Nc1ccc(-c2cc3c(Nc4cccc(Cl)c4)ncnc3[nH]2)cc1)c1ccccc1	0.5 to 1000 nM	100 to 1000 nM	1 to 100 nM
COC(=O)Nc1ccc(-c2cc3c(Nc4cccc(Cl)c4)ncnc3[nH]2)cc1	0.5 to 1000 nM	100 to 1000 nM	1 to 100 nM
O=C(Nc1ccc(-c2cc3c(Nc4cccc(Cl)c4)ncnc3[nH]2)cc1)c1ccco1	0.5 to 1000 nM	100 to 1000 nM	1 to 100 nM
COc1cc(-c2cc3c(Nc4cccc(Cl)c4)ncnc3[nH]2)ccc1OCc1ccccc1	0.5 to 1000 nM	100 to 1000 nM	1 to 100 nM
COc1cc(-c2cc3c(Nc4cccc(C)c4)ncnc3[nH]2)ccc1O	0.5 to 1000 nM	100 to 1000 nM	1 to 100 nM
Clc1cccc(Nc2ncnc3[nH]c(-c4ccc(N=CN5CCOCC5)cc4)cc23)c1	0.5 to 1000 nM	100 to 1000 nM	1 to 100 nM
C[C@@H](Nc1ncnc2[nH]c(-c3ccc(N=CN(C)C)cc3)cc12)c1ccccc1	0.5 to 1000 nM	100 to 1000 nM	1 to 100 nM
Cc1nc(-c2cc3c(Nc4cccc(Cl)c4)ncnc3[nH]2)sc1C	0.5 to 1000 nM	100 to 1000 nM	1 to 100 nM
CCNC(=O)Nc1cccc(-c2cc3c(Nc4cccc(Cl)c4)ncnc3[nH]2)c1	0.5 to 1000 nM	100 to 1000 nM	1 to 100 nM
CS(=O)(=O)Nc1ccc(-c2cc3c(Nc4cccc(Cl)c4)ncnc3[nH]2)cc1	0.5 to 1000 nM	100 to 1000 nM	1 to 100 nM
CCN(C=Nc1ccc(-c2cc3c(Nc4cccc(Cl)c4)ncnc3[nH]2)cc1)CC	0.5 to 1000 nM	100 to 1000 nM	1 to 100 nM
NC(=S)c1cc2c(Nc3cccc(Cl)c3)ncnc2[nH]1	0.5 to 1000 nM	100 to 1000 nM	1 to 100 nM
CN1CCN(Cc2cc3c(Nc4cccc(Cl)c4)ncnc3[nH]2)CC1	0.5 to 1000 nM	100 to 1000 nM	1 to 100 nM
CNC(=S)Nc1cccc(-c2cc3c(Nc4cccc(Cl)c4)ncnc3[nH]2)c1	0.5 to 1000 nM	100 to 1000 nM	1 to 100 nM

SMILES	IC50 (EGFR)	IC50 (EGFR (Balb/c mice) [1])	IC50 (EGFR (Balb/c mice) [2])
CC(C)S(=O)(=O)Nc1cccc(-c2cc3c(N[C@H](C)c4ccccc4)ncnc3[nH]2)c1	0.5 to 1000 nM	100 to 1000 nM	1 to 100 nM
CCN(C=Nc1cccc(-c2cc3c(Nc4cccc(Cl)c4)ncnc3[nH]2)c1)CC	0.5 to 1000 nM	100 to 1000 nM	1 to 100 nM
CCNC(=O)Nc1ccc(-c2cc3c(N[C@H](C)c4ccccc4)ncnc3[nH]2)cc1	0.5 to 1000 nM	100 to 1000 nM	1 to 100 nM
COc1cc(-c2cc3c(Nc4cccc(C)c4)ncnc3[nH]2)ccc1OCc1ccccc1	0.5 to 1000 nM	100 to 1000 nM	1 to 100 nM
CNC(=S)Nc1ccc(-c2cc3c(N[C@H](C)c4ccccc4)ncnc3[nH]2)cc1	0.5 to 1000 nM	100 to 1000 nM	1 to 100 nM
Clc1cccc(Nc2ncnc3[nH]c(-c4ccc(N=CN5CCCCC5)cc4)cc23)c1	0.5 to 1000 nM	100 to 1000 nM	1 to 100 nM
CCS(=O)(=O)Nc1cccc(-c2cc3c(N[C@H](C)c4ccccc4)ncnc3[nH]2)c1	0.5 to 1000 nM	100 to 1000 nM	1 to 100 nM
CNC(=S)Nc1cccc(-c2cc3c(N[C@H](C)c4ccccc4)ncnc3[nH]2)c1	0.5 to 1000 nM	100 to 1000 nM	1 to 100 nM
CN(C)C=Nc1cccc(-c2cc3c(Nc4cccc(Cl)c4)ncnc3[nH]2)c1	0.5 to 1000 nM	100 to 1000 nM	1 to 100 nM
CCOC(=O)Nc1ccc(-c2cc3c(Nc4cccc(Cl)c4)ncnc3[nH]2)cc1	0.5 to 1000 nM	100 to 1000 nM	1 to 100 nM
OCc1ccc(-c2cc3c(Nc4cccc(Cl)c4)ncnc3[nH]2)cc1	0.5 to 1000 nM	100 to 1000 nM	1 to 100 nM
COc1cc(-c2cc3c(Nc4ccccc4)ncnc3[nH]2)ccc1O	0.5 to 1000 nM	100 to 1000 nM	1 to 100 nM
Clc1cccc(Nc2ncnc3[nH]c(-c4cccc(N=CN5CCOCC5)c4)cc23)c1	0.5 to 1000 nM	100 to 1000 nM	1 to 100 nM
C[C@@H](Nc1ncnc2[nH]c(-c3ccc(NS(C)(=O)=O)cc3)cc12)c1ccccc1	0.5 to 1000 nM	100 to 1000 nM	1 to 100 nM
Clc1cccc(Nc2ncnc3[nH]c(-c4nnn[nH]4)cc23)c1	0.5 to 1000 nM	100 to 1000 nM	1 to 100 nM
CC(C)S(=O)(=O)Nc1cccc(-c2cc3c(Nc4cccc(Cl)c4)ncnc3[nH]2)c1	0.5 to 1000 nM	100 to 1000 nM	1 to 100 nM
CCS(=O)(=O)Nc1ccc(-c2cc3c(Nc4cccc(Cl)c4)ncnc3[nH]2)cc1	0.5 to 1000 nM	100 to 1000 nM	1 to 100 nM
CC(C)S(=O)(=O)Nc1ccc(-c2cc3c(Nc4cccc(Cl)c4)ncnc3[nH]2)cc1	0.5 to 1000 nM	100 to 1000 nM	1 to 100 nM
CC(C)S(=O)(=O)Nc1ccc(-c2cc3c(N[C@H](C)c4ccccc4)ncnc3[nH]2)cc1	0.5 to 1000 nM	100 to 1000 nM	1 to 100 nM
CC(C)COC(=O)Nc1ccc(-c2cc3c(Nc4cccc(Cl)c4)ncnc3[nH]2)cc1	0.5 to 1000 nM	100 to 1000 nM	1 to 100 nM
Cn1nnc(-c2cc3c(Nc4cccc(Cl)c4)ncnc3[nH]2)n1.Cn1nnnc1-c1cc2c(Nc3cccc(Cl)c3)ncnc2[nH]1	0.5 to 1000 nM	100 to 1000 nM	1 to 100 nM
CN1CCN(C=Nc2ccc(-c3cc4c(Nc5cccc(Cl)c5)ncnc4[nH]3)cc2)CC1	0.5 to 1000 nM	100 to 1000 nM	1 to 100 nM
CS(=O)(=O)Nc1cccc(-c2cc3c(Nc4cccc(Cl)c4)ncnc3[nH]2)c1	0.5 to 1000 nM	100 to 1000 nM	1 to 100 nM
COc1ccc(-c2csc(-c3cc4c(Nc5cccc(Cl)c5)ncnc4[nH]3)n2)cc1	0.5 to 1000 nM	100 to 1000 nM	1 to 100 nM
CCNC(=O)Nc1cccc(-c2cc3c(N[C@H](C)c4ccccc4)ncnc3[nH]2)c1	0.5 to 1000 nM	100 to 1000 nM	1 to 100 nM
O=C(c1cc2c(Nc3cccc(Cl)c3)ncnc2[nH]1)N1CCOCC1	0.5 to 1000 nM	100 to 1000 nM	1 to 100 nM
